Literature values, collected in patent publication US20070010487A1 (priority 2005, published 2007).

Biological target: P-gp efflux (Homo sapiens, UniProt P08183)
Sequence (P08183 whole entry): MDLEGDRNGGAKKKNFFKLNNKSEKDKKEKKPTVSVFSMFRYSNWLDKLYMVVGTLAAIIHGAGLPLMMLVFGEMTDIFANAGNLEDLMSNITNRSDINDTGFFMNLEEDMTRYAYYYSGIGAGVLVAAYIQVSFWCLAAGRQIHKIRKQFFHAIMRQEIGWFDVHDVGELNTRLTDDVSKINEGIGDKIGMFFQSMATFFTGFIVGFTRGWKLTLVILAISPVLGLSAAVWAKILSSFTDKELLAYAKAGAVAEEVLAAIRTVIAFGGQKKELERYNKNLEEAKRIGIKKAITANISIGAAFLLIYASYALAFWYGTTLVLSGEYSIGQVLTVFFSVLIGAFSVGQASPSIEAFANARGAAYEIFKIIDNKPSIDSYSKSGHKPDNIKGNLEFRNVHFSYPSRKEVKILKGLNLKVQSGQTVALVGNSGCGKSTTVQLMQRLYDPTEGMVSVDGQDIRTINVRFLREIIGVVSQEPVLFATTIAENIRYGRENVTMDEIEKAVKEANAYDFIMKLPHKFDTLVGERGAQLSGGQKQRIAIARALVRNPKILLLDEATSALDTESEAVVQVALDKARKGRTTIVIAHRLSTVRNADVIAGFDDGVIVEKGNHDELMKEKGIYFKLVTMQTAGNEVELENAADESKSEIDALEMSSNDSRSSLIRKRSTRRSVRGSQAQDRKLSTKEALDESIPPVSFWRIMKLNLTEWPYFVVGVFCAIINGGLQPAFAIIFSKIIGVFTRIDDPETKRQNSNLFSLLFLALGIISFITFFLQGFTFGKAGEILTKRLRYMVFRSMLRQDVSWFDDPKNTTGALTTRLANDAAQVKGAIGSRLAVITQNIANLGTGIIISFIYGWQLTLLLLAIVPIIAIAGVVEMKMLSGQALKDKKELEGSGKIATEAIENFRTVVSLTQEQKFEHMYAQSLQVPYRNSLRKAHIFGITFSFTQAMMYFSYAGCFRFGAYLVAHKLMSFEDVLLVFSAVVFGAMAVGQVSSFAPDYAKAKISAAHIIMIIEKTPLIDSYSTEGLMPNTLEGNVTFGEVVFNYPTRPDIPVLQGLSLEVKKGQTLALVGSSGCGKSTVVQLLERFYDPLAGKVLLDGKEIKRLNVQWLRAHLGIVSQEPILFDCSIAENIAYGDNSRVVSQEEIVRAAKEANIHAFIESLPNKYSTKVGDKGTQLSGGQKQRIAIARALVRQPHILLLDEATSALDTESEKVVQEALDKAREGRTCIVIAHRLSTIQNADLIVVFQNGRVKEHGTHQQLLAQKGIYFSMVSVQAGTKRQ

Question: With `O[C@@H](COc1cccc2ncccc12)CN1CCN([C@@H]2c3ccccc3[C@@H]3[C@H](c4ccccc42)C3(F)F)CC1` [Zosuquidar] as the molecule, how does the “substrate for P-gp efflux” value read?
Answer: Its value is “does not appear to be a substrate for P-gp efflux”.
